Experimental data from PMC11851433, “Novel Quinazoline Derivatives Inhibit Splicing of Fungal Group II Introns” (ACS Chemical Biology, 2025).
≈ marks a conversion by molar mass, not a printed value. Where two headings read alike, the source gives them in different places.

Tests used:
HEK-293T cells = assay: Cytotoxicity in HEK-293T cells (Cell Titer Glo); format: cell-based; settings: Homo sapiens, read-out: IC50 for cell growth inhibition
Experimental: For the cytotoxicity experiments, cells were aliquoted into black 96-well plates with a clear bottom (Corning 3603), grown, treated with the inhibitors, and subjected to the Cell Titer Glo cell viability assay (Promega) as previously described.[33] All experiments were performed in triplicate.

D135 ribozyme = assay: HTS / dose–response intron activity assay (fluorescently labeled substrate, D135 ribozyme); format: biochemical, Saccharomyces cerevisiae; settings: 10 concentrations, highest 100 μM, 1:3 serial dilution
Experimental: The RNA oligonucleotide substrate for HTS, containing the last 17 nucleotides of the native 5′-exon and the first two nucleotides of the ai5γ intron,[33] was synthesized on a MerMade 12 RNA-DNA synthesizer (BioAutomation) using TBDMS RNA phosphoramidites (TxBio), aminomodifier C6dT, and Black Hole Quencher 2 CPG (Glen Research). For base deprotection, the oligonucleotide was treated with 30% ammonium hydroxide (JT Baker) for 24 h at RT. The 2’–OH deprotection and oligonucleotide purification were carried out as described.[57],[58] Fluorescent labeling of the substrate with the NHS ester of AlexaFluor 555 was carried out as described.[33]
HTS was carried out by CRL using the fluorescently labeled substrate, unlabeled D135 ribozyme (see above), and a proprietary library of ∼1,50,000 compounds using assay conditions previously described,[33] with the following adaptations. The D135 ribozyme (20 nM final concentration) was first prefolded in a buffer of 50 mM MOPS, pH 7.5, 50 mM MgCl2, and 500 mM KCl at 37 °C for 30 min. Library compounds were then added at 12.5 μM final concentration followed by addition of the substrate (to 15 nM final concentration), and the reaction mixtures were incubated at 37 °C for 40 min. Reactions were was quenched by addition of urea (2.67 M final) and analyzed as described. […]

ai5γ group II intron [1] = assay: Radioanalytic in vitro splicing assay, splicing inhibition constants; format: biochemical, Saccharomyces cerevisiae; settings: for improvement of inhibitory activity (Ki) relative to compound 3: vs compound 3
Experimental: Internally ^32P-labeled ai5γ intron RNA with short exons[54] was in vitro transcribed in the presence of ^32P-α-UTP using T7 RNA polymerase and purified on a 5% denaturing polyacrylamide gel as described.[55] Large-scale transcription of the […] ribozyme, utilized for HTS, was carried out as previously described.[56] Splicing inhibition constants were determined as previously described[33],[34] with the following change in the experimental procedure: reactions were carried out in a buffer of 50 mM MOPS pH 7.5, 100 mM MgCl2, and 500 mM KCl at 42 °C. Aliquots of the reaction mixture were withdrawn at different time points, quenched, and analyzed on a 5% denaturing polyacrylamide gel as previously described.[55] Inhibition constants were determined as previously described.[33],[34] Experiments were performed twice to ensure reproducibility. Data represent average ± s.e.m.

C. parapsilosis = assay: MIC determination for C. parapsilosis (CLSI M27-A3); format: cell-based, Candida parapsilosis; settings: for MIC C. parapsilosis: Supplementary table 1; for MIC: Lodderomyces parapsilosis
Experimental: C. parapsilosis [strain American Type Culture Collection (ATCC) 22019] was purchased from ATCC and cultured according to the manufacturer’s instructions. S. cerevisiae wild-type (NP40-36a) and mtDNA intronless (XPM46) strains were a gift from Dr. Thomas Fox (Dept. of Molecular Biology and Genetics, Cornell University).[44] MICs for C. parapsilosis were determined as previously described[33] according to the guidelines from the protocol M27-A3 from the Clinical and Laboratory Standards Institute (CLSI).[59] All experiments were performed in triplicate.

[2] = system: COX1 intronless S. cerevisiae strain; assay: Inhibition of S. cerevisiae growth, COX1 intronless strain; format: cell-based, Saccharomyces cerevisiae
Experimental: (§1) C. parapsilosis [strain American Type Culture Collection (ATCC) 22019] was purchased from ATCC and cultured according to the manufacturer’s instructions. S. cerevisiae wild-type (NP40-36a) and mtDNA intronless (XPM46) strains were a gift from Dr. Thomas Fox (Dept. of Molecular Biology and Genetics, Cornell University).[44]
(§2) Reduction of yeast growth in the presence of inhibitor molecules was assayed either in liquid YPD media (BD Bacto Yeast Extract, BD Bacto Peptone, 2% glucose) or in YPG media (BD Bacto Yeast Extract, BD Bacto Peptone, 3% glycerol), as previously described[33],[34],[59] with the following adaptations. Yeast cultures were grown for 24 h in YPD medium and for […] in YPG medium. All experiments were performed in triplicate to ensure reproducibility.

WT S. cerevisiae strain = assay: Inhibition of S. cerevisiae growth, WT strain; format: cell-based, Saccharomyces cerevisiae
Experimental: as §1, §2

[3] = system: C. parapsilosis COX1 precursor mRNA splicing; assay: In cellulo analysis of group II intron splicing by qRT-PCR; format: cell-based, Candida parapsilosis; settings: compound 64 μg/mL, PGK1 as standard
Experimental: C. parapsilosis (ATCC: 22019) growth and harvest was performed essentially as described[33] with the following modifications. Compounds dissolved in DMSO were added to individual cultures to a final concentration of 64 μg/mL. Total RNA was isolated using an E.Z.N.A Fungal RNA Mini Kit (Omega Bio-tek) according to the manufacturer’s protocol. The RNA was eluted in 50 μL of a 1:100 mixture of SUPERaseIn RNase inhibitor (Thermo Fisher): MOPS-EDTA (ME) buffer [10 mM MOPS (pH 6.5), 0.1 mM Na-EDTA (pH 8.5)] followed by DNase treatment with RQ1 DNase (Promega) for 30 min at 37 °C. Then, the reaction was mixed with 7 μL of 3 M NaOAc and precipitated with 80% EtOH at –20 °C. The recovered RNA was resuspended in 30 μL of 1:100 mixture of SUPERaseIn RNase inhibitor/ME buffer. Next, 200 ng of Random Hexamer Primers (Thermo Fisher) was annealed to 10 ng of RNA in 11 μL at 65 °C for 5 min. The annealing reaction mixture was then cooled to RT, followed by the addition of 9 μL of a SuperScript III (Thermo Fisher) master mix: 1X First Strand Synthesis Buffer, 0.5 mM dNTPs (NEB: N0447S), 5 mM DTT, 10U SUPERaseIn RNase inhibitor, and 100 U SuperScript III. Manufacturer reverse transcription conditions were used, followed by an inactivation step at 75 °C for 15 min. After reverse transcription, RNA was degraded by adding 1.5 μL of a 1:1:1 mixture of RNase H (NEB), RNase A (NEB), and RNase T1 (Thermo Fisher) and incubating at 37 °C for 30 min. The cDNA was then purified using AMPure beads (Beckman Coulter) at a 1.8× bead-to-sample ratio according to the manufacturer’s protocol. Purified cDNA was eluted in 30 μL of nuclease-free water. Real-time PCR quantification of cDNA and subsequent determination of the relative levels of PGK1, COX1 (total), and COX1 (unspliced) from different conditions were performed in duplicate with three independent samples as previously described.[33]

ai5γ group II intron [4] = biological target: ai5γ group II intron; parameters: method as in PMID 30323219; settings: for comparison; read-out: Ki of previously published inhibitors; cited from earlier work
[5] = system: C. parapsilosis COX1 precursor mRNA splicing; parameters: method as in PMID 30323219; settings: for comparison; cited from earlier work
[6] = Figure 3, 100 mM MgCl2, 500 mM KCl, 42 °C, read-out: Ki for the in vitro splicing of the ai5γ intron
[7] = Supplementary table 1, read-out: Ki ai5γ intron

Structure (SMILES): C[C@@H]1[C@H](O)[C@@H](C)/C=C/C=C/C=C/C=C/C=C/C=C/C=C/[C@H](O[C@@H]2O[C@H](C)[C@@H](O)[C@H](N)[C@@H]2O)C[C@@H]2O[C@](O)(C[C@@H](O)C[C@@H](O)[C@H](O)CC[C@@H](O)C[C@@H](O)CC(=O)O[C@H]1C)C[C@H](O)[C@H]2C(=O)O [amphotericin B, reference compound]
- IC50 (HEK-293T cells): 2.6 ± 0.2 µg/mL (≈ 2.81 µM)

Structure (SMILES): COc1ccc(Nc2nc(-c3ccccn3)nc3ccccc23)cc1 [compound 1]
- IC50 (D135 ribozyme): 3 µM
- Ki (ai5γ group II intron [1]; [6]): 27 ± 6 µM

Structure (SMILES): COc1cccc(CNc2nc(-c3ccccn3)nc3ccccc23)c1 [compound 2]
- Ki (ai5γ group II intron [1]; [7]): 55 ± 19 µM
- MIC C. parapsilosis (C. parapsilosis): > 128 µg/mL

Structure (SMILES): c1ccc(CNc2nc(-c3ccccn3)nc3ccccc23)cc1 [compound 3]
- Ki (ai5γ group II intron [1]; [7]): 77 ± 25 µM

Structure (SMILES): COc1ccc(Nc2ncnc3ccccc23)cc1 [compound 4]
- Ki (ai5γ group II intron [1]; [7]): > 100 µM

Structure (SMILES): COc1cccc(CNc2ncnc3ccccc23)c1 [compound 5]
- Ki (ai5γ group II intron [1]; [7]): > 100 µM
- MIC C. parapsilosis (C. parapsilosis): 16 µg/mL (≈ 60.3 µM)

Structure (SMILES): c1ccc(Nc2ncnc3ccccc23)cc1 [compound 6]
- Ki (ai5γ group II intron [1]; [7]): > 100 µM

Structure (SMILES): c1ccc(CNc2ncnc3ccccc23)cc1 [compound 7]
- Ki (ai5γ group II intron [1]; [7]): > 100 µM

Structure (SMILES): Nc1nc(-c2ccccn2)nc2ccccc12 [compound 8]
- Ki (ai5γ group II intron [1]; [7]): > 100 µM

Structure (SMILES): c1ccc(-c2ncc3ccccc3n2)nc1 [compound 9]
- Ki (ai5γ group II intron [1]; [7]): > 100 µM

Structure (SMILES): CC(C)(C)c1ccc(Nc2nc(-c3ccccn3)nc3ccccc23)cc1 [compound 10]
- Ki (ai5γ group II intron [1]; [7]): 11 ± 2 µM
- MIC (C. parapsilosis): 2 to 8 µg/mL (≈ 5.64 to 22.6 µM)

Structure (SMILES): CC(C)(C)c1ccc(Nc2nc(-c3ccncc3)nc3ccccc23)cc1 [compound 11]
- inhibitory activity in the splicing assay (in words) (ai5γ group II intron [1]): completely abolishes activity
- Ki (ai5γ group II intron [1]; [7]): > 100 µM

Structure (SMILES): c1ccc(-c2nc(Nc3ccc4c(c3)OCO4)c3ccccc3n2)nc1 [compound 12]
- Ki (ai5γ group II intron [1]; [7]): 11 ± 2 µM
- increase in inhibitory activity relative to compound 1 (ai5γ group II intron [1]; vs compound 1): 3 fold

Structure (SMILES): c1ccc(-c2nc(N3Cc4ccccc4C3)c3ccccc3n2)nc1 [compound 14]
- Ki (ai5γ group II intron [1]; [7]): 7.6 ± 1.7 µM
- MIC S. cerevisiae intronless strain [2]: 32 µg/mL (≈ 98.6 µM)
- growth inhibition of WT vs COX1 intronless S. cerevisiae strain (WT S. cerevisiae strain; WT more strongly inhibited than intronless strain): eight-fold
- MIC S. cerevisiae WT strain (WT S. cerevisiae strain; WT strain): 4 µg/mL (≈ 12.3 µM)

Structure (SMILES): CC(C)(C)c1cccc(CNc2nc(-c3ccccn3)nc3ccccc23)c1 [compound 15]
- Ki (ai5γ group II intron [1]; [7]): 6.4 ± 1.9 µM
- improvement of inhibitory activity (Ki) relative to compound 3 (ai5γ group II intron [1]): more than 10 fold

Structure (SMILES): FC(F)(F)c1cccc(CNc2nc(-c3ccccn3)nc3ccccc23)c1 [compound 16]
- Ki (ai5γ group II intron [1]; [7]): 5.6 ± 0.6 µM
- improvement of inhibitory activity (Ki) relative to compound 3 (ai5γ group II intron [1]): more than 10 fold
- MIC ([2]; Saccharomyces cerevisiae): 64 µg/mL (≈ 168 µM)
- effect on splicing of C. parapsilosis COX1 (unspliced relative to total COX1 mRNA) [3]: moderate defects
- MIC (WT S. cerevisiae strain; Saccharomyces cerevisiae): 16 µg/mL (≈ 42.1 µM)
- MIC in C. parapsilosis (C. parapsilosis): 4 µg/mL (≈ 10.5 µM)
- MIC (C. parapsilosis): 2 to 8 µg/mL (≈ 5.26 to 21 µM)
- IC50 (HEK-293T cells): 5.6 ± 0.1 µg/mL (≈ 14.7 µM)

Structure (SMILES): Clc1cccc(CNc2nc(-c3ccccn3)nc3ccccc23)c1 [compound 17]
- Ki (ai5γ group II intron [1]; [7]): 2.6 ± 0.5 µM
- improvement of inhibitory activity (Ki) relative to compound 3 (ai5γ group II intron [1]): 30 fold
- effect on splicing of C. parapsilosis COX1 (unspliced relative to total COX1 mRNA) [3]: moderate defects
- MIC in C. parapsilosis (C. parapsilosis): 2 µg/mL (≈ 5.77 µM)
- MIC (C. parapsilosis): 2 to 8 µg/mL (≈ 5.77 to 23.1 µM)
- IC50 (HEK-293T cells): 3.9 ± 0.1 µg/mL (≈ 11.2 µM)

Structure (SMILES): FC(F)(F)c1cccc(CNc2nc(-c3ccccn3)nc3cc(Cl)ccc23)c1 [compound 18]
- Ki (ai5γ group II intron [1]; [7]): 20 ± 6 µM
- drop in inhibitory activity relative to compound 16 (ai5γ group II intron [1]; vs compound 16): four-fold

Structure (SMILES): Clc1cccc(CNc2nc(-c3ccccn3)nc3cc(Cl)ccc23)c1 [compound 19]
- Ki (ai5γ group II intron [1]; [6]): 1.4 ± 0.4 µM
- effect on splicing of C. parapsilosis COX1 (unspliced relative to total COX1 mRNA) [3]: remained unchanged

Structure (SMILES): CC(=O)c1ccc(-c2ccc3oc(C(=O)c4cc(O)c(O)c(O)c4)cc3c2)cc1 [intronistat A]
- Ki (ai5γ group II intron [4]): 2.1 ± 0.2 µM

Structure (SMILES): O=C(NCCN1CCCC1)c1ccc2oc(C(=O)c3cc(O)c(O)c(O)c3)cc2c1 [intronistat B]
- Ki (ai5γ group II intron [4]): 0.36 ± 0.02 µM
- levels of unspliced vs total C. parapsilosis COX1 transcripts [5]: 1.5 fold
